Data from patent US20210024490A1, “METHOD FOR THE PREPARATION OF THE METABOLITES OF (4S)- AND (4R)-4-(4-CYANO-2-METHOXYPHENYL)-5-ETHOXY-2,8-DIMETHYL-1,4-DIHYDRO-1,6-NAPHTHYRIDINE-3-CARBOXAMIDE AND THE USE THEREOF” (Bayer Pharma Aktiengesellschaft, priority 2015, published 2021).

Key:
[1] = molecular target: T1, human mineralocorticoid receptor (MR) (Homo sapiens, UniProt P08235); test: Cellular in vitro assay to determine the inhibitory MR activity (GAL4-steroid hormone receptor chimera, luciferase reporter, CHO K1 cells); format: cell-based; settings: antagonism of aldosterone-stimulated GAL4-MR chimera
T1 construct: expressed in transfected cells; host or cells: CHO K1 (Chinese hamster ovary), stably transfected
T1 sequence (P08235 734-984 limits assumed): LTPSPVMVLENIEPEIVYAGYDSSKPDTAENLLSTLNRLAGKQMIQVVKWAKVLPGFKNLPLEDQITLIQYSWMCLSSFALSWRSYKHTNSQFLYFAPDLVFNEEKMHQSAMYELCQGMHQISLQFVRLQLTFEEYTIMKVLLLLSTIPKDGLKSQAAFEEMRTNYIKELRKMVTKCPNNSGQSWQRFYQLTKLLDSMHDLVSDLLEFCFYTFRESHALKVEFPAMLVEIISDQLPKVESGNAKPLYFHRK
Excerpt: B-1. Cellular In Vitro Assay to Determine the Inhibitory MR Activity and MR Selectivity Compared with Other Steroid Hormone Receptors
Antagonists of the human mineralocorticoid receptor (MR) are identified, and the efficacy of the compounds described herein is quantified with the aid of a recombinant cell line. The cell is originally derived from a hamster ovary epithelial cell (Chinese Hamster Ovary, CHO K1, ATCC: American Type Culture Collection, VA 20108, USA).
An established chimera system in which the ligand-binding domains of human steroid hormone receptors are fused to the DNA-binding domain of the yeast transcription factor GAL4 is used in this CHO K1 cell line. The GAL4-steroid hormone receptor chimeras produced in this way are cotransfected and stably expressed with a reporter construct in the CHO cells.
To generate the GAL4-steroid hormone receptor chimeras, the GAL4 DNA-binding domain (amino acids 1-147) from the vector pFC2dbd (from Stratagene) is cloned with the PCR-amplified ligand-binding domains of the mineralocorticoid receptor (MR, amino acids 734-985), of the glucocorticoid receptor (GR, amino acids 443-777), of the progesterone receptor (PR, amino acids 680-933) and of the androgen receptor (AR, amino acids 667-919) into the vector pIRES2 (from Clontech). […]
The MR cells are plated out in medium (Optimem, 2.5% FCS, 2 mM glutamine, 10 mM HEPES) in 96-well (or 384- or 1536-well) microliter plates the day before the assay, and are kept in a cell incubator (96% air humidity, 5% v/v CO2, 37° C.). […] After a further incubation time of 5 to 6 hours, the luciferase activity is measured with the aid of a video camera. The relative light units measured give a sigmoidal stimulation curve as a function of the substance concentration. The IC50 values (in mol) are calculated with the aid of the computer program GraphPad PRISM (Version 3.02).

[2] = parameters: species or system humans; settings: dog, rat, mouse, human, in vivo
Excerpt: For pharmacokinetic measurements, standards of very high quality had to be prepared in order to be able to carry out reliable quantification. From the structural elucidation of the metabolites (via MS of the serum of various animal species and humans) obtained after administration of (4 S)-4-(4-cyano-2-methoxyphenyl)-5-ethoxy-2,8-dimethyl-1,4-dihydro-1,6-naphthyridine-3-carboxamide of the formula 4S (I), the following 6 main metabolites were found (the absolute stereochemistry of the atropisomers can be assigned according to the Cahn-Ingold-Prelog convention and is specified in parentheses):
If the R enantiomer 4R (I) is used, […]

IC50 [1] | Structure (SMILES) | main metabolites formed [2]
9.33 µM | CCOc1ncc(C)c2nc(C)c(C(N)=O)c(-c3ccc(C#N)cc3OC)c12 (single isomer, unassigned) [M1a (S)] | 
> 10 µM | CCOc1ncc(C)c2nc(C)c(C(N)=O)c(-c3ccc(C#N)cc3OC)c12 (single isomer, unassigned) [M1b (R)] | 
 | CCOc1ncc(C)c2c1[C@@H](c1ccc(C#N)cc1OC)C(C(N)=O)=C(C)N2 [4R (I), (4R)-4-(4-cyano-2-methoxyphenyl)-5-ethoxy-2,8-dimethyl-1,4-dihydro-1,6-naphthyridine-3-carboxamide] | the metabolites of the b series are principally formed, i.e. M1b (R), M2b (R) and M3b (R)
0.0277 µM | CCOc1ncc(C)c2c1[C@H](c1ccc(C#N)cc1OC)C(C(N)=O)=C(C)N2 [Compound of the formula (I), (4S)-4-(4-cyano-2-methoxyphenyl)-5-ethoxy-2,8-dimethyl-1,4-dihydro-1,6-naphthyridine-3-carboxamide] | metabolized mainly to M1a (S) and the subsequent metabolites M2a (S) and M3a (S)
